Measured values reported in patent US9877966B1, “Combination therapy for the inhibition of metastasis and tumorigenesis” (priority 2015, dated 2018).

Tests used:
Format in all cases: cell-based, human
[1] = system: PNC prevalence in PC3M cell line stably expressing GFP-PTB; test: High content assay for PNC detection (reduction of PNC prevalence); conditions: Table 4; PC3M GFP-PTB cells, 16 hrs
Source text: The quantitative output for this assay is the reduction of PNC prevalence. The PNC can be detected in living cells by the expression of a green fluorescent protein (GFP) tagged to the PNC localized protein, PTB. A PC3M cell line was used that stably expresses GFP-PTB to mark PNCs. This method eliminates the need for immunofluorescent staining.
The IN Cell Analyzer 1000 automated fluorescent imaging system (GE Healthcare, Piscataway, N.J.) was used for automated image acquisition. […] The instrument acquired images of each well in a 1536-well plate with a laser-based autofocus system. To score PNC prevalence in a high-content throughput, the Multi-Target Analysis (MTA) algorithm (GE Healthcare, Investigator v3.5) to identify individual cells and granules (PNCs) within these cells was used. The nucleus was segmented via a region growing method (50 μm^2 minimum area) with light shading and noise removal to allow “touching” nuclei to be separated. […] For this particular assay, PNC-positive cells were scored when 1 to 3 PNC granules were detected per nucleus. Cells that contained 0 granules were scored as PNC negative, and cells with >3 granules were assumed to be false positives (very few cells have more than 3 PNCs in one focus plane), and were also scored as PNC negative.

[2] = system: PC3M reporter cell line stably expressing PTB-GFP (ATP levels); test: ATP quantitation assay (ATPLite); conditions: Table 4, PC3M cells, 24 hrs
Procedure: This follow-up assay was conducted to measure the effect of compounds on cell health by measuring ATP levels (ATPLite™). ATPLite™ is an ATP monitoring system based on firefly (Photinus pyralis) luciferase. The level of ATP in a metabolically active cell is a general marker for its viability. ATP levels are often reduced during necrosis or apoptosis. In this assay, the luciferase enzyme catalyzes the conversion of the added substrate D-luciferin to oxyluciferin and light with ATP. Thus, the emitted light is proportional to the ATP concentration. For this assay, the highly metastatic PC3M reporter cell line stably expressing the PTB-GFP was provided by Professor Sui Huang of Northwestern University. The media and cell culture reagents were purchased from Invitrogen (Carlsbad, Calif.), ATPLite™ came from PerkinElmer.

[3] = system: PC3M cells; test: Soft agar colony formation assay (anchorage independent growth)
Procedure: Compound 2 was tested for its ability to affect anchorage independent growth in a soft agar assay, a stringent method to detect malignant transformation of cells in vitro.

| SMILES | PNC IC50 [1] | ATP IC50 [2] | cell viability ([3]; soft agar assay, 3.8, 18.6 nM) | number of colonies (anchorage independent growth) ([3]; soft agar, after 14 days, 3.8, 18.6 nM) |
| --- | --- | --- | --- | --- |
| COC(=O)C[C@H](C(=O)OC)n1ncc2c(c(-c3ccccc3)cn2Cc2ccc(Br)cc2)c1=N [Compound 114] | inactive | inactive |  |  |
| N=c1c2c(-c3ccccc3)c(-c3ccccc3)n(Cc3ccccc3)c2ncn1[C@H]1CC[C@H](O)CC1 [Compound 2, trans-4-(7-Benzyl-4-imino-5,6-diphenyl-4,7-dihydro-3H-pyrrolo[2,3-d]pyrimidin-3-yl)cyclohexanol] |  |  | no impact on cell viability | dose dependent reduction in the number of colonies |
